# In patent publication US9029376B2, “Small molecule inhibitors for the treatment or prevention of dengue virus infection” (Siga Technologies, Inc., priority 2008, dated 2015):
# pEC50: −log10 of the molar value.
# Tested on: Dengue-2 (Strain New Guinea C)
# Experiment: Dengue-2 viral yield assay in Vero cells
# Assay type: cell-based
# Conditions: Dengue virus, Vero, 48 h, read-out: Activity (anti-dengue 2 viral activity, EC50)
# Description: Compounds that were active in the primary screen were tested for activity in viral yield assays. […] Vero cells in 12-well plates were infected with dengue-2 virus at a multiplicity of infection (MOI) of 0.1, treated with compound (or DMSO as a control), incubated at 37° C., harvested 48 hours post infection and titered on Vero cells as described above. The EC50 was calculated through ExcelFit. Those compounds with activity below 1 μM are indicated with “A”, those with activity between 1 and 10 μM are indicated with “B”, and those with activity between 10 and 25 μM with “C”.
row,SMILES,pEC50
1,"O=C(Nc1ccc2nc(SCC(=O)N3CCOCC3)sc2c1)c1ccccc1 [Compound 21, N-[2-(2-Morpholin-4-yl-2-oxo-ethylsulfanyl)-benzothiazol-6-yl]-benzamide]",< 4.60
2,"CCCC(=O)Nc1ccc2nc(SCC(=O)N3CCN(c4ccccc4)CC3)sc2c1 [Compound 75, N-{2-[2-oxo-2-(4-phenyl-piperazin-1-yl)-ethylsulfanyl]-benzothiazol-6-yl}-butyramide]",< 4.60
3,"O=C(O)c1ccc2oc(SCC(=O)N3CCCCC3)nc2c1 [Compound 48, 2-(2-oxo-2-piperidin-1-yl-ethylsulfanyl)-benzooxazole-5-carboxylic acid]",< 4.60
4,"CCn1c(SCC(=O)N2CCC(C(N)=O)(N3CCCCC3)CC2)nnc1-c1ccccc1 [Compound 69, 1′-[2-(4-Ethyl-5-phenyl-4H-[1,2,4]triazol-3-ylsulfanyl)-acetyl]-[1,4′]bipiperidinyl-4′-carboxylic acid amide]",< 4.60
5,"O=C(CSc1nc2ccccc2[nH]1)N1CCN(c2ccccc2)CC1 [Compound 46, 2-(1H-Benzoimidazol-2-ylsulfanyl)-1-(4-phenyl-piperazin-1-yl)-ethanone]",< 4.60
6,"O=C(CSc1nc2ccccc2s1)N1CCCCC1 [Compound 41, 2-(Benzothiazol-2-ylsulfanyl)-1-piperidin-1-yl-ethanone]",< 4.60
7,"Cc1cccc(C(=O)Nc2ccc3nc(SCC(=O)N4CCOCC4)sc3c2)c1 [Compound 13, 3-Methyl-N-[2-(2-morpholin-4-yl-2-oxo-ethylsulfanyl)-benzothiazol-6-yl]-benzamide]",4.60 to 5.00

# Same assay, conditions: Dengue virus; Dengue-2 strain New Guinea C, Vero cells, MOI 0.1, harvested 48 hours post infection, viral yield; read-out: Activity (anti-dengue 2 viral activity, EC50)
row,SMILES,pEC50
1,"O=C(CSc1nc2ccccc2s1)N1CCN(C(c2ccccc2)c2ccccc2)CC1 [Compound 72, 1-(4-Benzhydryl-piperazin-1-yl)-2-(benzothiazol-2-ylsulfanyl)-ethanone]",< 4.60
2,"O=C(CSc1nc2ccccc2s1)N1CCCC1 [Compound 63, 2-(Benzothiazol-2-ylsulfanyl)-1-pyrrolidin-1-yl-ethanone]",< 4.60
3,"O=C(CSc1nc2ccccc2[nH]1)N1CCc2ccccc2C1 [Compound 61, 2-(1H-Benzoimidazol-2-ylsulfanyl)-1-(3,4-dihydro-1H-isoquinolin-2-yl)-ethanone]",< 4.60
4,"O=C(CSc1nc2ccc([N+](=O)[O-])cc2s1)N1CCCC1 [Compound 55, 2-(6-Nitro-benzothiazol-2-ylsulfanyl)-1-pyrrolidin-1-yl-ethanone]",< 4.60
5,"CCOc1ccc2nc(SCC(=O)N3CCN(c4ccccc4)CC3)sc2c1 [Compound 14, 2-(6-Ethoxy-benzothiazol-2-ylsulfanyl)-1-(4-phenyl-piperazin-1-yl)-ethanone]",4.60 to 5.00
6,"Nc1ccc2nc(SCC(=O)N3CCN(c4nc5ccccc5s4)CC3)sc2c1 [Compound 40, 2-(6-Amino-benzothiazol-2-ylsulfanyl)-1-(4-benzothiazol-2-yl-piperazin-1-yl)-ethanone]",< 4.60
7,"O=C(Nc1ccc2nc(SCC(=O)N3CCOCC3)sc2c1)c1ccc(Cl)c(Cl)c1 [Compound 29, 3,4-Dichloro-N-[2-(2-morpholin-4-yl-2-oxo-ethylsulfanyl)-benzothiazol-6-yl]-benzamide]",< 4.60
8,"Cn1c(SCC(=O)Nc2ccc3nc(SCC(=O)N4CCOCC4)sc3c2)nnc1-c1ccccc1 [Compound 37, 2-(4-Methyl-5-phenyl-4H-[1,2,4]triazol-3-ylsulfanyl)-N-[2-(2-morpholin-4-yl-2-oxo-ethylsulfanyl)-benzothiazol-6-yl]-acetamide]",< 4.60
9,"CCN(CC)C(=O)CSc1nc2ccccc2n1C(=O)NC1CCCCC1 [Compound 15, 2-Diethylcarbamoylmethylsulfanyl-benzoimidazole-1-carboxylic acid cyclohexylamide]",< 4.60
10,"Nc1ccc2nc(SCC(=O)N3CCN(Cc4ccccc4)CC3)sc2c1 [Compound 10, 2-(6-Amino-benzothiazol-2-ylsulfanyl)-1-(4-benzyl-piperazin-1-yl)-ethanone]",5.00 to 6.00
